Source: patent US12552770B2, “Compounds for treating respiratory disease” (TMEM16A Limited, priority 2020, dated 2026)

Biological target: T1, human TMEM16A (TMEM16Aabc variant) (Homo sapiens, UniProt Q5XXA6, DEL476-501)
T1 sequence (Q5XXA6 with tags, fused parts or gaps isoform Q5XXA6-5 DEL539-564): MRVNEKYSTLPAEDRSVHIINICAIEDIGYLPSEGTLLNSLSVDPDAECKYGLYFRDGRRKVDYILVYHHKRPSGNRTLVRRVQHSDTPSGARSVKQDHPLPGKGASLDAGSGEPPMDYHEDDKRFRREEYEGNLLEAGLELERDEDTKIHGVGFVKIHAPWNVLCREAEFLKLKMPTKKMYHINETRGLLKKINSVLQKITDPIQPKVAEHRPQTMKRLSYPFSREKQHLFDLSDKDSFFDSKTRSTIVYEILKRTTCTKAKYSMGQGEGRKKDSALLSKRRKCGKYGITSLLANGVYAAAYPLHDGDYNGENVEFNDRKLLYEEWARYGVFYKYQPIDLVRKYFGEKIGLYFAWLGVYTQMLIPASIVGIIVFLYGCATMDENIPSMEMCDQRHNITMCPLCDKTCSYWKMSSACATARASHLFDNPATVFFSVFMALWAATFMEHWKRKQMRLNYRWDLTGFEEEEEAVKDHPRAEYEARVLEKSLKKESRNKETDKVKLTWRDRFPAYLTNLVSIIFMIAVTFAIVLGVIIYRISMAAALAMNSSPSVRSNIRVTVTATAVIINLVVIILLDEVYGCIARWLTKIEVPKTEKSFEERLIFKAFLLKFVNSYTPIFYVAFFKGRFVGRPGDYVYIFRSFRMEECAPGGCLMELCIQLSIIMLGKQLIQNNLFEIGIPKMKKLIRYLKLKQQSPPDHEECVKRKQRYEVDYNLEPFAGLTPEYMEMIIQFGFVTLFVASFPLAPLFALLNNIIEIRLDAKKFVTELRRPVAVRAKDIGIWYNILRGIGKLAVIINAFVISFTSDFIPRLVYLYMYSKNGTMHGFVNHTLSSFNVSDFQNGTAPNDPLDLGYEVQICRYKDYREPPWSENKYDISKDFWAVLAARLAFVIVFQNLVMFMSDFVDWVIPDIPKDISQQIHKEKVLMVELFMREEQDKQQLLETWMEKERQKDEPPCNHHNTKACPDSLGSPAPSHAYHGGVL
Experiment: Automated whole-cell patch clamp (Qpatch) TMEM16A potentiator assay in recombinant cells
Assay type: cell-based
Settings: FRT cells stably expressing human TMEM16A, intracellular calcium at EC20; for % Potentiation @ 3.33 μM Avg: 3.33 μM solution of test compound, percentage increase of baseline TMEM16A current, peak current at +70 mV; for EC50: calculated from cumulative concentration response curve, whole-cell patch clamp
Description: Automated Whole-Cell Patch Clamp Assay to Detect TMEM16A Activity in Recombinant Cells
Cell Culture and Preparation
Fisher rat thyroid (FRT) cells stably expressing human TMEM16A (TMEM16Aabc variant; Dr Luis Galietta, Insituto Giannina, Italy) were cultured in T-75 flasks in Hams F-12 media with Coon's modification (Sigma) supplemented with 10% (v/v) foetal bovine serum, penicillin-streptomycin (10,000 U/mL/10000 μg/mL), G-418 (750 μg/mL), L-glutamine (2 mM) and sodium bicarbonate solution (7.5% v/v). At ˜90% confluence cells were harvested for experiments by detachment with a 2:1 (v/v) mixture of Detachin (BMS Biotechnology) and 0.25% (w/v) trypsin-EDTA. Cells were diluted to a density of 3.5-4.5×10^6 cells/mL with media consisting of CHO-S-SFM II (Sigma), 25 mM HEPES (Sigma) and Soy bean trypsin inhibitor (Sigma).
Whole-Cell Patch Clamp Recording
FRT-TMEM16A cells were whole-cell patch clamped using an automated planar patch clamp system (Qpatch, Sophion). Briefly, once high resistance (GOhm) seals were established between the cells and the planar recording array the patch was ruptured using suction pulses to establish the whole-cell recording configuration of the patch clamp technique. The assay employed the following solutions (all reagents Sigma):
Intracellular solution (mM): N-methyl-D-glucamine 130, CaCl2 18.2, MgCl2 1, HEPES 10, EGTA 10, BAPTA 20, Mg-ATP 2, pH 7.25, 325 mOsm with sucrose.
Extracellular solution (mM): N-methyl-D-glucamine 130, CaCl2 2, MgCl2 1, HEPES 10, pH 7.3, 320 mOsm with sucrose.
The intracellular solution buffers intracellular calcium at levels required to give ˜20% activation of the maximal TMEM16A mediated current (EC20 for calcium ions). Cells were voltage clamped at a holding potential of −70 mV and a combined voltage step (to +70 mV)/ramp (−90 my to +90 mV) was applied at 0.05 Hz. After a period of current stabilisation test compounds, solubilised in 100% (v/v) DMSO and subsequently diluted into extracellular solution, were applied to generate a cumulative concentration response curve. Each concentration of test compound was incubated for 5 minutes before addition of the next concentration. After the final concentration was tested a supramaximal concentration of either a known active positive modulator or the TMEM16A inhibitor, CaCCinhA01 (Del La Fuente et al, 2008) was added to define the upper and lower limits of the assay.
Compound activity was quantified by measuring the increase in current upon compound addition and expressing this as a percentage increase of baseline TMEM16A current level. Percentage increases in current were determined for each concentration and the data plotted as a function of concentration using either the Qpatch software or Graphpad Prism v6.05 providing the concentration which gave 50% of its maximal effect (EC50) and maximum efficacy (percentage of baseline increase).
In FIG. 1, IBL equals baseline current, I[#1] equals the peak current during test compound concentration 1 incubation period and so on.
Peak TMEM16A current at +70 mV was plotted as a function of time over the assay period. Baseline current (IBL) was measured after a period of stabilisation. The increase in current for each compound addition was determined by taking the peak current during the incubation period and subtracting the current from the previous recording period and then expressing this as a percentage of the baseline current. For test compound concentration 1 in FIG. 1 this is:
For each additional concentration tested the increase in current was determined by subtracting the current from the previous incubation period and normalising the baseline value—for test concentration 2 in FIG. 1 this is:
The values for each test concentration were plotted as a cumulative function of concentration e.g. for test concentration two this would be the sum of the peak changes measured during concentration one plus concentration two.

| SMILES | % Potentiation @ 3.33 μM Avg | EC50 |
| --- | --- | --- |
| Cc1c2ccc(NC(=O)CC34CC5CC(CC(C5)C3)C4)cc2nn1Cc1ccccc1 [Example 17, 2-(1-Adamantyl)-N-(2-benzyl-3-methyl-indazol-6-yl)acetamide] | 118.3% | 918 nM |
| CC(C)(C)c1nc2cc(NC(=O)Cc3cc(Cl)ccc3O)ccc2[nH]1 [Example 18, N-(2-tert-Butyl-1H-benzimidazol-5-yl)-2-(5-chloro-2-hydroxy-phenyl)acetamide] | 95.9% | 156 nM |
| CC(C)(CNC(=O)OC(C)(C)C)CNC(=O)c1ccc2[nH]c(Cc3ccccc3)nc2c1 [Example 19, tert-Butyl N-[3-[(2-benzyl-1H-benzimidazole-5-carbonyl)amino]-2,2-dimethyl-propyl]carbamate] | 181.6% | 936 nM |
| CC(C)(C)c1nc2ccc(C(=O)NCC3CCCCCC3)cc2[nH]1 [Example 20, 2-tert-Butyl-N-(cycloheptylmethyl)-3H-benzimidazole-5-carboxamide] | 85.9% | 776 nM |
| CC(C)(C)c1cc(F)c(Cc2nc3cc(C(=O)NC4(C(F)(F)F)CC4)ccc3[nH]2)cc1O [Example 21, 2-[(4-tert-Butyl-2-fluoro-5-hydroxy-phenyl)methyl]-N-[1-(trifluoromethyl)cyclopropyl]-1H-benzimidazole-5-carboxamide] | 262% | 99 nM |
| CC(C)(C)c1cc(F)c(Cc2nc3cc(C(=O)NCC4(C(F)(F)F)CC4)ccc3[nH]2)cc1O [Example 21.1, 2-[(4-tert-Butyl-2-fluoro-5-hydroxy-phenyl)methyl]-N-[[1-(trifluoromethyl)cyclopropyl]methyl]-1H-benzimidazole-5-carboxamide] | 275% | 227 nM |
| CC(C)(C)c1cc(F)c(Cc2nc3cc(C(=O)NCCC(F)(F)F)ccc3[nH]2)cc1O [Example 21.2, 2-[(4-tert-Butyl-2-fluoro-5-hydroxy-phenyl)methyl]-N-(3,3,3-trifluoropropyl)-1H-benzimidazole-5-carboxamide] | 272% | 150 nM |
| CC(C)(O)c1cc(F)c(CC(=O)Nc2ccc3[nH]c(C4(C(F)(F)F)CC4)nc3c2)cc1O [Example 22, 2-[2-Fluoro-5-hydroxy-4-(1-hydroxy-1-methyl-ethyl)phenyl]-N-[2-[1-(trifluoromethyl)cyclopropyl]-1H-benzimidazol-5-yl]acetamide] | 149% | 168 nM |
| CC(C)(C)c1cc(F)c(CC(=O)Nc2ccc3[nH]c(C4(C(F)(F)F)CC4)nc3c2)cc1O [Example 23, 2-(4-tert-Butyl-2-fluoro-5-hydroxy-phenyl)-N-[2-[1-(trifluoromethyl)cyclopropyl]-1H-benzimidazol-5-yl]acetamide] | 153% | 52 nM |
| O=C(NCCC(F)(F)F)c1ccc2[nH]c(Cc3ccccc3)nc2c1 [Example 24, 2-Benzyl-N-(3,3,3-trifluoropropyl)-1H-benzimidazole-5-carboxamide] | 69% | 1100 nM |
| O=C(NCC1CCCC1)c1ccc2[nH]c(Cc3ccccc3)nc2c1 [Example 24.1, 2-Benzyl-N-(cyclopentylmethyl)-1H-benzimidazole-5-carboxamide] | 106% | 176 nM |
| O=C(NCC1CCCCCC1)c1ccc2[nH]c(Cc3ccccc3)nc2c1 [Example 24.2, 2-Benzyl-N-(cycloheptylmethyl)-1H-benzimidazole-5-carboxamide] | 137% | 120 nM |
| O=C(NCC1CCCCCC1)c1ccc2[nH]c(Cc3c(O)cccc3F)nc2c1 [Example 25, N-(Cycloheptylmethyl)-2-[(2-fluoro-6-hydroxy-phenyl)methyl]-1H-benzimidazole-5-carboxamide] | 57% | 36 nM |
| CC(C)(C)Cc1nc2cc(NC(=O)Cc3cc(Cl)ccc3O)ccc2[nH]1 [Example 26, 2-(5-Chloro-2-hydroxy-phenyl)-N-[2-(2,2-dimethylpropyl)-1H-benzimidazol-5-yl]acetamide] | 69% | 98 nM |
| CC(C)(C)c1nc2cc(NC(=O)Cc3cc(Cl)ccc3O)ccc2[nH]1 [Example 27, N-(2-tert-Butyl-1H-benzimidazol-5-yl)-2-(5-chloro-2-hydroxy-phenyl)acetamide] | 96% | 156 nM |

Results, then the compound that gave them:

| % Potentiation @ 3.33 μM Avg | EC50 | SMILES |
| --- | --- | --- |
| 142% | 76 nM | O=C(NCC1CCCCCC1)c1ccc2[nH]c(Cc3cc(F)ccc3O)nc2c1 [Example 25.1, N-(Cycloheptylmethyl)-2-[(5-fluoro-2-hydroxy-phenyl)methyl]-1H-benzimidazole-5-carboxamide] |
| 83% | 200 nM | O=C(NCC1CCCCCC1)c1ccc2[nH]c(Cc3cccc(F)c3O)nc2c1 [Example 25.2, N-(Cycloheptylmethyl)-2-[(3-fluoro-2-hydroxy-phenyl)methyl]-1H-benzimidazole-5-carboxamide] |
| 104% | 76 nM | O=C(NCC1CCCCCC1)c1ccc2[nH]c(Cc3ccccc3O)nc2c1 [Example 25.3, N-(Cycloheptylmethyl)-2-[(2-hydroxyphenyl)methyl]-1H-benzimidazole-5-carboxamide] |
| 120% | 130 nM | O=C(NCC1CCCCCC1)c1ccc2[nH]c(Cc3ccc(F)cc3O)nc2c1 [Example 25.4, N-(Cycloheptylmethyl)-2-[(4-fluoro-2-hydroxy-phenyl)methyl]-1H-benzimidazole-5-carboxamide] |
| 66% | 223 nM | O=C(NCC1CCCCCC1)c1ccc2[nH]c(Cc3cccc(O)c3)nc2c1 [Example 25.5, N-(Cycloheptylmethyl)-2-[(3-hydroxyphenyl)methyl]-1H-benzimidazole-5-carboxamide] |
